Assay results taken from publication PMC8533333, “Melatonin Analogues Potently Inhibit MAO-B and Protect PC12 Cells against Oxidative Stress” (Antioxidants, 2021).

Legend:
[1] = molecular target: T1, Human recombinant MAO-B (hMAO-B) (Homo sapiens, UniProt P27338); assay: MAO-B enzyme assay (Amplex Red, resorufin fluorescence); format: biochemical; details: for inhibition at 10 µM: single dose 10 µM
T1 construct: purchased Sigma Aldrich; host or cells: insect cells
T1 sequence (P27338 1-520): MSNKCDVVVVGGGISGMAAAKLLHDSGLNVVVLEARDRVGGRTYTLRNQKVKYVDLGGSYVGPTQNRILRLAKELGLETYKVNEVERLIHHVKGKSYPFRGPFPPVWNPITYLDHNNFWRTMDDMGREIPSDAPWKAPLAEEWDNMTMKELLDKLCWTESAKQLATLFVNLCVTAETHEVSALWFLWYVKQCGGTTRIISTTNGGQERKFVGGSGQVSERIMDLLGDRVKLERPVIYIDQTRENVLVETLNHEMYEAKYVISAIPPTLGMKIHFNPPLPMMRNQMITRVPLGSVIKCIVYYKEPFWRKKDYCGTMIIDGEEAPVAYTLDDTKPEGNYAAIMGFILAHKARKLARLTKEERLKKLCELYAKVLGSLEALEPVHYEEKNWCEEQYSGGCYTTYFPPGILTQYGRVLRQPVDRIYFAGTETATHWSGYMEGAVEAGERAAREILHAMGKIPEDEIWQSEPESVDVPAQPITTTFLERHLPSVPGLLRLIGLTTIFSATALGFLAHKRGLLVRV
Protocol: Biological evaluation of the synthesized melatonin derivatives over both MAO-A and MAO-B was performed as reported previously. A detailed description of the protocol is in the Supplementary Materials.
First, the synthesized melatonin analogues (3a–x) were biologically evaluated over an MAO-B recombinant enzyme. The experiment was performed using Amplex® Red reagent technology. This technology offers quantitative enzyme activity sensitive detection, a wider dynamic range, and fluorescence emission outside the range of compound autofluorescence (if any). The Amplex® Red reagent is a colorless substrate that reacts with H2O2 in a 1:1 stoichiometry to produce a highly fluorescent resorufin; therefore, the induced inhibitory effects of the melatonin analogues over MAO-B were examined via spectrophotometry where the fluorescence rate of resorufin dye formation was measured.
Accordingly, compounds 3n, 3r, and 3u–w were further tested to determine their IC50 values over MAO-B in triplicate from the dose–response inhibition curves using Sigma-Plot software 13.0.
6. Materials and methods of monoamine oxidase (MAO) enzyme assay
The inhibitory activity of MAO-A, B enzyme of the compounds was evaluated based on previously described method. The MAO activity was measured in relative fluorescence units (RFU) evoked by peroxidase-catalyzed oxidation of Amplex Red® to resorufin, in which H2O2 generated by MAO reaction was used as the […]. Human recombinant MAO-A (hMAO-A) and MAO-B (hMAO-B) enzyme expressed in insect cells were obtained from Sigma Aldrich. The 2 μL of test compound in DMSO (final concentration: 1 nM – 10 μM) was treated with 98 μL of hMAO enzyme solution in 50 mM sodium phosphate buffer (pH 7.4, final protein amounts: ~1.25 μg protein/well for MAO-A and ~2.5 μg protein/well for MAO -B) on 96-well black plate and incubated for 15 min at 37 °C. Then 100 μL of reaction working solution which is mixed solution of 400 μM Amplex Red® (Cayman, final concentration: 200 μM), 2 U/mL horseradish peroxidase ( Sigma-Aldrich, final concentration: 1 U/mL) and 2 mM substrate ( p-tyramine for MAO -A, benzylamine for MAO -B, Sigma-Aldrich, final concentration: 1 mM) in 50 mM sodium phosphate buffer (pH 7.4) were added and incubated for 20 min at 37 °C in the dark. The fluorescent intensity was quantified using a microplate reader (SpectraMax®i3, Molecular Device) with an excitation at 545 nm and an emission at 590 nm. The 50% inhibitory concentrations (IC50) of compounds were determined as the mean ± S.E.M. in triplicate from the dose-response inhibition curves using SigmaPlot® 13.0. […]

O=C(Nc1ccc2[nH]ccc2c1)c1cccc([N+](=O)[O-])c1 [3f, N-(1H-indol-5-yl)-3-nitrobenzamide]
melting point: 214 to 215 °C | inhibition at 10 µM [1]: 54.25 ± 0.37%

O=C(Nc1ccc2[nH]ccc2c1)c1ccc(Cl)cc1 [3p, 4-Chloro-N-(1H-indol-5-yl)benzamide]
inhibition at 10 µM [1]: 57.98 ± 0.07%

O=C(Nc1ccc2[nH]ccc2c1)c1c(F)cccc1F [3h, 2,6-Difluoro-N-(1H-indol-5-yl)benzamide]
melting point: 236 to 237 °C | inhibition at 10 µM [1]: -0.02 ± 0.26%

O=C(Nc1ccc2[nH]ccc2c1)c1ccccc1Cl [3o, 2-Chloro-N-(1H-indol-5-yl)benzamide]
inhibition at 10 µM [1]: 2.39 ± 0.31%

O=C(Nc1ccc2[nH]ccc2c1)c1ccccc1F [3k, 2-Fluoro-N-(1H-indol-5-yl)benzamide]
melting point: 179 to 181 °C | inhibition at 10 µM [1]: 37.86 ± 0.33%

N#Cc1cccc(C(=O)Nc2ccc3[nH]ccc3c2)c1 [3m, 3-Cyano-N-(1H-indol-5-yl)benzamide]
melting point: 188 to 189 °C | inhibition at 10 µM [1]: 8.33 ± 0.59%

O=C(Nc1ccc2[nH]ccc2c1)c1ccc([N+](=O)[O-])cc1 [3g, N-(1H-indol-5-yl)-4-nitrobenzamide]
melting point: 262 to 264 °C | inhibition at 10 µM [1]: 61 ± 0.69%

O=C(Nc1ccc2[nH]ccc2c1)c1cccc(F)c1 [3i, 3-Fluoro-N-(1H-indol-5-yl)benzamide]
melting point: 166 to 168 °C | inhibition at 10 µM [1]: 35.3 ± 0.76%

O=C(Nc1ccc2[nH]ccc2c1)c1ccccc1Br [3b, 2-Bromo-N-(1H-indol-5-yl)benzamide]
melting point: 231 to 233 °C | inhibition at 10 µM [1]: 0.27 ± 0.81%

O=C(Nc1ccc2[nH]ccc2c1)c1ccc(OC(F)(F)F)cc1 [3t, N-(1H-indol-5-yl)-4-(trifluoromethoxy)benzamide]
melting point: 195 to 196 °C | inhibition at 10 µM [1]: 63.23 ± 0.45%

CC(C)(C)c1ccc(C(=O)Nc2ccc3[nH]ccc3c2)cc1 [3q, 4-(Tert-butyl)-N-(1H-indol-5-yl)benzamide]
melting point: 189 to 190 °C | inhibition at 10 µM [1]: 50.01 ± 0.04%

C#CCN[C@@H]1CCc2ccccc21 [rasagiline, reference compound]
Selectivity Index (SI) ([1]; IC50 (MAO-A)/IC50 (MAO-B)): > 50

O=C(Nc1ccc2[nH]ccc2c1)c1ccc(F)cc1 [3j, 4-Fluoro-N-(1H-indol-5-yl)benzamide]
inhibition at 10 µM [1]: 58.3 ± 1.02%

O=C(Nc1ccc2[nH]ccc2c1)c1cccc(OC(F)(F)F)c1 [3s, N-(1H-indol-5-yl)-3-(trifluoromethoxy)benzamide]
melting point: 130 to 132 °C | inhibition at 10 µM [1]: 68.34 ± 0.25%

O=C(Nc1ccc2[nH]ccc2c1)c1cc([N+](=O)[O-])cc([N+](=O)[O-])c1 [3e, N-(1H-indol-5-yl)-3,5-dinitrobenzamide]
inhibition at 10 µM [1]: 2.75 ± 0.2%

O=C(Nc1ccc2[nH]ccc2c1)c1ccc(Cl)cc1Cl [3d, 2,4-Dichloro-N-(1H-indol-5-yl)benzamide]
melting point: 161 to 162 °C | inhibition at 10 µM [1]: 22.9 ± 0.7%

O=C(Nc1ccc2[nH]ccc2c1)c1ccc(Br)cc1 [3c, 4-Bromo-N-(1H-indol-5-yl)benzamide]
melting point: 209 to 210 °C | inhibition at 10 µM [1]: 37.1 ± 0.7%

O=C(Nc1ccc2[nH]ccc2c1)c1c(Cl)cccc1Cl [3x, 2,6-Dichloro-N-(1H-indol-5-yl)benzamide]
melting point: 221 to 223 °C | inhibition at 10 µM [1]: 0.89 ± 0.31%

O=C(Nc1ccc2[nH]ccc2c1)c1ccc(F)cc1C(F)(F)F [3l, 4-Fluoro-N-(1H-indol-5-yl)-2-(trifluoromethyl)benzamide]
melting point: 153 to 154 °C | inhibition at 10 µM [1]: 1.49 ± 0.26%

O=C(Nc1ccc2[nH]ccc2c1)c1ccccc1 [3a, N-(1H-indol-5-yl)benzamide]
inhibition at 10 µM [1]: 14.9 ± 0.8%
